In patent US11878975B2, “Substituted indole compounds useful as TLR inhibitors” (BRISTOL-MYERS SQUIBB COMPANY, priority 2017, dated 2024):

How the values were obtained:
Format in all cases: cell-based
human TLR7 = target: T1, human TLR7 (Homo sapiens, UniProt Q9NYK1); experiment: TLR7 inhibition reporter assay (HEK-Blue cells, SEAP reporter, gardiquimod stimulation); conditions: HEK-Blue cells overexpressing human TLR7, SEAP reporter, gardiquimod 7.5 μM
T1 construct: host or cells: HEK-Blue cells
T1 sequence (Q9NYK1 27-1049): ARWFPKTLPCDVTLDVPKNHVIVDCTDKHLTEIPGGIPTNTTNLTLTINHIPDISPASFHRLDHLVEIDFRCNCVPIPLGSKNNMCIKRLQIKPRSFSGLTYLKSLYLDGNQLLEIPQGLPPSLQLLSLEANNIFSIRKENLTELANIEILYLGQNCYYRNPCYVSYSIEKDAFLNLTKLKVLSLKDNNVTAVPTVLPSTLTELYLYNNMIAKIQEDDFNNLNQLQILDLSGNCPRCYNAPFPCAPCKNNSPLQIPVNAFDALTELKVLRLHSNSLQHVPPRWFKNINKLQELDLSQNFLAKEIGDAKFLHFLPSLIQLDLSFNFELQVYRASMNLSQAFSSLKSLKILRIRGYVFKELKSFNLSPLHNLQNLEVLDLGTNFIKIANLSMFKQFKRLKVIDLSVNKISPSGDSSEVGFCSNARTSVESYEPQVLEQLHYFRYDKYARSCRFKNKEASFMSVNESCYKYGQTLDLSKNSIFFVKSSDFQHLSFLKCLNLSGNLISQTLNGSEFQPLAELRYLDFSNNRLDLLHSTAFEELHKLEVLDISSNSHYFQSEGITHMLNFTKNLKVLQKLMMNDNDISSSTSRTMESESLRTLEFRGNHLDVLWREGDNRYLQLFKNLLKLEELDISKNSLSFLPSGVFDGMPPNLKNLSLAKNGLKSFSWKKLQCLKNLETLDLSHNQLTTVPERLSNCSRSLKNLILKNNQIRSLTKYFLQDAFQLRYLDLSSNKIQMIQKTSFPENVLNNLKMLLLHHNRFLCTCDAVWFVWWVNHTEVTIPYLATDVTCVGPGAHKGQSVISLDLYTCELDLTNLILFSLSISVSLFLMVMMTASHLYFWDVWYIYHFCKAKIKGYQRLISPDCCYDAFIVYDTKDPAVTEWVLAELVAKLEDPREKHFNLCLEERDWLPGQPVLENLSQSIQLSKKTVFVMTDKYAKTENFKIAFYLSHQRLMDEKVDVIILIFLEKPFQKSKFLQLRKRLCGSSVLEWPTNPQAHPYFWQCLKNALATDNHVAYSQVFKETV
Procedure, shortened: (§1)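 SEAP readout after 22 h agonist exposure at 37 °C; final agonist levels were 7.5 μM gardiquimod (TLR7), 15.9 μM R848 (TLR8) and 5 nM ODN2006 (TLR9). Inhibitors, spanning 0.05 nM to 50 μM final, were applied 30 min beforehand.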

human TLR8 = target: T2, human TLR8 (Homo sapiens, UniProt Q9NR97); experiment: TLR8 inhibition reporter assay (HEK-Blue cells, SEAP reporter, R848 stimulation); conditions: HEK-Blue cells overexpressing human TLR8, SEAP reporter, R848 15.9 μM
T2 construct: host or cells: HEK-Blue cells
T2 sequence (Q9NR97 27-1041): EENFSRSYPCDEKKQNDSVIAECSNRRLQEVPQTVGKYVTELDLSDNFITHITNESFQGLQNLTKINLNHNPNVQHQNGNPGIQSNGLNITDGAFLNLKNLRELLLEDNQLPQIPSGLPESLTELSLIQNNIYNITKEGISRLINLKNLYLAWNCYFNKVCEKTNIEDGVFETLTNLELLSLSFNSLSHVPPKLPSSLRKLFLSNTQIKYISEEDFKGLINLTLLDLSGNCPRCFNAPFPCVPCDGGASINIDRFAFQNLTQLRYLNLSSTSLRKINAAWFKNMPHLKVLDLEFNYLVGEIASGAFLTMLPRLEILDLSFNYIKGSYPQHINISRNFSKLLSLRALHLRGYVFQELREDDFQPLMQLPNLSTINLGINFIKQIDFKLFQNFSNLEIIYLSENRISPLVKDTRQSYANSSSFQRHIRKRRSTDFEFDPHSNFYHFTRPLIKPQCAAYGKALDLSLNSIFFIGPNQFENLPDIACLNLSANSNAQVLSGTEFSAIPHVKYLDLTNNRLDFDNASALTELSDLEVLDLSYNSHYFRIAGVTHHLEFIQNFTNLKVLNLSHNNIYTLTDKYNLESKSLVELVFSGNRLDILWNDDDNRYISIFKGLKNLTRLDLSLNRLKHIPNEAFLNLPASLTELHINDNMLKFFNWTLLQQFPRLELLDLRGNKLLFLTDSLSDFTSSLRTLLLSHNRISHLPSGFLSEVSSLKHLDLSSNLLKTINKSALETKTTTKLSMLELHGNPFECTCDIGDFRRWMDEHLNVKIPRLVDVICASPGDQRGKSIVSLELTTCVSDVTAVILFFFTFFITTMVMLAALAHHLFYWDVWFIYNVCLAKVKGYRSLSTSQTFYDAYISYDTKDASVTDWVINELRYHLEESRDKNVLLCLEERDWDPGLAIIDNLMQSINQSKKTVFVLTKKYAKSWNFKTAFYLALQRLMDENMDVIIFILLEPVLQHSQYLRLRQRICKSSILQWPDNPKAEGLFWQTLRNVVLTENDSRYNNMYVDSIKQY
Procedure, shortened: as §1

human TLR9 = target: T3, human TLR9 (Homo sapiens, UniProt Q9NR96); experiment: TLR9 inhibition reporter assay (HEK-Blue cells, SEAP reporter, ODN2006 stimulation); conditions: HEK-Blue cells overexpressing human TLR9, SEAP reporter, ODN2006 5 nM
T3 construct: host or cells: HEK-Blue cells
T3 sequence (Q9NR96 26-1032): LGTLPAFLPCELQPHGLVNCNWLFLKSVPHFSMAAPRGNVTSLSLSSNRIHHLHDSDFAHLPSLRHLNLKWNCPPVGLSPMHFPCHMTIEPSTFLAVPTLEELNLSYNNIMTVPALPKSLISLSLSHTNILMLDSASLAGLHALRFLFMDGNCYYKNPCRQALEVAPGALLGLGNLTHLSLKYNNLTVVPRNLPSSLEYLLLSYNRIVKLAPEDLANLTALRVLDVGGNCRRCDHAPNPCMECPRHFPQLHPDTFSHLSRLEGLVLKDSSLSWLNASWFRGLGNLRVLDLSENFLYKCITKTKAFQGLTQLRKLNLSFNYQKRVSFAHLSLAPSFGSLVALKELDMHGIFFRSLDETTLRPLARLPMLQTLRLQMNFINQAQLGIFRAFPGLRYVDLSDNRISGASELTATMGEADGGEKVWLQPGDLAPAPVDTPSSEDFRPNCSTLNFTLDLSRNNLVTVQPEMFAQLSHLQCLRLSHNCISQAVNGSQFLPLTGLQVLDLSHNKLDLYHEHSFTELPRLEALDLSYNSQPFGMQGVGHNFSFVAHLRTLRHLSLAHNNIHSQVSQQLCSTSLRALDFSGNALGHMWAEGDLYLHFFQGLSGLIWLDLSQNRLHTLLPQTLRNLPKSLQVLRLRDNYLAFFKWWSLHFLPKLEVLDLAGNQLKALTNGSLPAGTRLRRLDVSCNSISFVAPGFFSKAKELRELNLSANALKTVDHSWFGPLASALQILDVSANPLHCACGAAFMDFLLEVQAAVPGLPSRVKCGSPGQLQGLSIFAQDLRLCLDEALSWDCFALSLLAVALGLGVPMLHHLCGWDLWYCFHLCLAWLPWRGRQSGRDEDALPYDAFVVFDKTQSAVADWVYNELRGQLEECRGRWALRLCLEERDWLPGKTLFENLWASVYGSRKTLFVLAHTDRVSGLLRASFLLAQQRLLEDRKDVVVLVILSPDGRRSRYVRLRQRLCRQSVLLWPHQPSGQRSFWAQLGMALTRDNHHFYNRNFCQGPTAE
Procedure, shortened: as §1

Row | Structure (SMILES) | IC50 (human TLR7) | IC50 (human TLR8) | IC50 (human TLR9)
1 | Cc1cc(-c2[nH]c3ccc(C4CN(CC(=O)N(C)C)CCO4)cc3c2C(C)C)cc(C)n1 (stereo not drawn) [Example 326] | 75 nM | 28 nM | 19.4 µM
2 | Cc1cc(-c2[nH]c3ccc(C4CN(CC(N)=O)CCO4)cc3c2C(C)C)cc(C)n1 (stereo not drawn) [Example 327] | 54 nM | 48 nM | > 50 µM
3 | Cc1cc(-c2[nH]c3ccc(C4CN(C(=O)CN(C)C)CCO4)cc3c2C(C)C)cc(C)n1 (stereo not drawn) [Example 335] | 5 nM | 12 nM | 0.729 µM
4 | Cc1cc(-c2[nH]c3ccc(C4CN(C(=O)CN(C)C)CCO4)cc3c2C(C)C)cc(C)n1 (stereo not drawn) [Example 336] | 10 nM | 10 nM | 0.53 µM
5 | CNCC(=O)N1CCOC(c2ccc3[nH]c(-c4cc(OC)c5ncnn5c4)c(C(C)C)c3c2)C1 (stereo not drawn) [Example 342] | 3 nM | 16 nM | 1.72 µM
6 | Cc1cc(-c2[nH]c3ccc(C4CN(CCS(C)(=O)=O)CCO4)cc3c2C(C)C)cn2ncnc12 (stereo not drawn) [Example 343, 2-(3-isopropyl-2-(8-methyl-[1,2,4]triazolo[1,5-a]pyridin-6-yl)-1H-indol-5-yl)-4-(2-(methylsulfonyl)ethyl)morpholine] | 10 nM | 34 nM | > 50 µM
7 | Cc1cc(-c2[nH]c3ccc(C4CN(CCS(C)(=O)=O)CCO4)cc3c2C(C)C)cn2ncnc12 (stereo not drawn) [Example 344] | 7 nM | 14 nM | > 50 µM
8 | COCCN1CCOC(c2ccc3[nH]c(-c4cc(OC)c5ncnn5c4)c(C(C)C)c3c2)C1 (stereo not drawn) [Example 345] | 6 nM | 12 nM | 8.61 µM
9 | Cc1c(-c2[nH]c3ccc(C4CN(CCS(C)(=O)=O)CCO4)cc3c2C(C)C)cn2ncnc2c1C (stereo not drawn) [Example 346] | 25 nM | 24 nM | > 50 µM
10 | Cc1c(-c2[nH]c3ccc(C4CN(CCS(C)(=O)=O)CCO4)cc3c2C(C)C)cn2ncnc2c1C (stereo not drawn) [Example 347] | 22 nM | 14 nM | > 50 µM
11 | Cc1cc(-c2[nH]c3ccc(C4CN(CCS(C)(=O)=O)CCO4)cc3c2C(C)C)cc(C)n1 (stereo not drawn) [Example 351] | 28 nM | 31 nM | 48.3 µM
12 | COCCN1CCOC(c2ccc3[nH]c(-c4cc(C)nc(C)c4)c(C(C)C)c3c2)C1 (stereo not drawn) [Example 352] | 42 nM | 15 nM | 3.7 µM
13 | Cc1cc(-c2[nH]c3ccc(C4CN(CCS(C)(=O)=O)CCO4)cc3c2C(C)C)cc(C)n1 (stereo not drawn) [Example 353] | 95 nM | 31 nM | > 50 µM

Now those with a lower IC50 (human TLR7), led by results:

Row | IC50 (human TLR7) | IC50 (human TLR8) | IC50 (human TLR9) | Structure (SMILES)
14 | 2 nM | 5.1 nM | 4.83 µM | CNCC(=O)N1CCOC(c2ccc3[nH]c(-c4cn5ncnc5c(C)c4C)c(C(C)C)c3c2)C1 (stereo not drawn) [Example 340]
15 | 2 nM | 5 nM | 5.97 µM | CNCC(=O)N1CCOC(c2ccc3[nH]c(-c4cn5ncnc5c(C)c4C)c(C(C)C)c3c2)C1 (stereo not drawn) [Example 341]
16 | 1 nM | 3.4 nM | 4.14 µM | Cc1c(-c2[nH]c3ccc(C4CN(C(=O)CN(C)C)CCO4)cc3c2C(C)C)cn2ncnc2c1C (stereo not drawn) [Example 329]
17 | 1 nM | 3.4 nM | 3.33 µM | Cc1c(-c2[nH]c3ccc(C4CN(C(=O)CN(C)C)CCO4)cc3c2C(C)C)cn2ncnc2c1C (stereo not drawn) [Example 330]
18 | 1 nM | 4.6 nM | 3.62 µM | Cc1cc(-c2[nH]c3ccc(C4CN(C(=O)CN(C)C)CCO4)cc3c2C(C)C)cn2ncnc12 (stereo not drawn) [Example 331]
19 | 1 nM | 7.1 nM | 3.28 µM | CNCC(=O)N1CCOC(c2ccc3[nH]c(-c4cc(C)c5ncnn5c4)c(C(C)C)c3c2)C1 (stereo not drawn) [Example 337, 1-(2-(3-isopropyl-2-(8-methyl-[1,2,4]triazolo[1,5-a]pyridin-6-yl)-1H-indol-5-yl)morpholino)-2-(methylamino)ethanone]
20 | 1 nM | 6 nM | 0.863 µM | CNCC(=O)N1CCOC(c2ccc3[nH]c(-c4cc(OC)c5ncnn5c4)c(C(C)C)c3c2)C1 (stereo not drawn) [Example 339]
21 | 0.85 nM | 8.2 nM | 5.49 µM | Cc1cc(-c2[nH]c3ccc(C4CN(C(=O)CN(C)C)CCO4)cc3c2C(C)C)cn2ncnc12 (stereo not drawn) [Example 328, 2-(dimethylamino)-1-(2-(3-isopropyl-2-(8-methyl-[1,2,4]triazolo[1,5-a]pyridin-6-yl)-1H-indol-5-yl)morpholino)ethanone]
22 | 0.83 nM | 3.1 nM | 2.75 µM | COc1cc(-c2[nH]c3ccc(C4CN(C(=O)CN(C)C)CCO4)cc3c2C(C)C)cn2ncnc12 (stereo not drawn) [Example 334]
23 | 0.78 nM | 7.1 nM | 2.05 µM | CNCC(=O)N1CCOC(c2ccc3[nH]c(-c4cc(C)c5ncnn5c4)c(C(C)C)c3c2)C1 (stereo not drawn) [Example 338]
24 | 0.65 nM | 6.2 nM | 2.8 µM | COc1cc(-c2[nH]c3ccc(C4CN(C(=O)CN(C)C)CCO4)cc3c2C(C)C)cn2ncnc12 (stereo not drawn) [Example 332]
